Data from US4614746A, “5-fluorobenzonitrile derivatives for increasing the lean meat to fat ratio and/or enhancing the growth rate of warm-blooded animals” (American Cyanamid Company, priority 1985, dated 1986).

Legend:
[1] = target: T1, beta-1 adrenergic receptor (Meleagris gallopavo, UniProt P07700); assay: Beta-1 adrenergic activity, (H3) dihydroalprenolol radioligand binding to erythrocyte membranes; set-up: species or system turkey and rat; conditions: (H3) DHA, room temperature (23° C.), one hour; read-out: β1 K-50 (concentration required to displace 50% radioactive ligand from binding sites of beta adrenergic receptors)
T1 construct: Beta-1 adrenergic receptor membranes are isolated from turkey and rat erythrocytes; from tissue; host or cells: erythrocyte membranes from freshly drawn turkey blood (rat blood also given)
T1 sequence (P07700 whole entry): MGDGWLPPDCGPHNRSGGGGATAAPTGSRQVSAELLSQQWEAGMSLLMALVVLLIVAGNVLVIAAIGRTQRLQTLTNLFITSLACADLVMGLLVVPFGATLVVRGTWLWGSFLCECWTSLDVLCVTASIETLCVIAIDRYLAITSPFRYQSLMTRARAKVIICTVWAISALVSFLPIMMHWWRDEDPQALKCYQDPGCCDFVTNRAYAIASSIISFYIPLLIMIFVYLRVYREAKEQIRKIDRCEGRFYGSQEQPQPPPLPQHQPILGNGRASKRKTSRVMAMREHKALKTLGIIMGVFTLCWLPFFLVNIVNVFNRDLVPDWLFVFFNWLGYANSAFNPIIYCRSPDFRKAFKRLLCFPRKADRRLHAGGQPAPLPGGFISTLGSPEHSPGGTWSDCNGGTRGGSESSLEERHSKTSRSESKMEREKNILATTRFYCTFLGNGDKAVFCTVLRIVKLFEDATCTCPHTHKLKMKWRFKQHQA
Experimental: Beta-1 adrenergic activity of experimental compounds is identified by radioactive ligand-binding studies by using beta adrenergic receptor membranes and adrenergic antagonist (H3) dihydroalprenolol (DHA). Binding of (H3) DHA to membrane fractions is assayed by filtration on glass fiber filters. Specific binding is defined as total radioactivity bound minus nonspecific bound radioactivity, i.e., binding in the presence of 100 μM nonradioactive DHA. Results are expressed as the concentrations of the compound required to displace 50% radioactive ligand from binding of beta adrenergic receptors (K-50).
In these tests, beta adrenergic receptor membranes are incubated with radioactive dihydroalprenolol (H3 DHA) and experimental compounds. The bound radio-ligand is separated by filtration on glass fiber filters and counted by scintillation counter.
Radioactive ligand, H3 dihydroalprenolol (DHA) and aquasol are purchased from New England Nuclear Corporation, DMSO is supplied by J. T. Baker Company, and all other chemicals are obtained from Sigma Chemical Company.
Beta-1 adrenergic receptor membranes are isolated from turkey and rat erythrocytes respectively using the procedures of:
Freshly drawn heparinized whole blood from turkeys and rats is centrifuged for five minutes (4×500 g). The plasma is withdrawn; the remaining erythrocytes are suspended in 150 mM sodium chloride solutions and centrifuged. The cells are resuspended and centrifuged twice more. The cells are hemolyzed in 10 volume of cold distilled water containing 2 mM dithiothreitol, 100 μM phenylmethyl sulfonyl fluoride, 5 μg/mL leupeptin, 200 μg/mL bacitacin, 0.1% bovine serum albumin, and 10 units/mL aprotonin, and centrifuged at 3000×g for five minutes. The bottom gelatin layer is discarded. The top layer is suspended and centrifuged five times at 3000×g and resuspended in tris buffer (145 mM NaCl, 1 mM ethylene glycol-bis(β-aminoethyl ether) N,N,N,N, tetraacetic acid, 2 mM MgCl2, 10 mM tris, and 10% glycerol, pH 7.4). The resuspended membranes are further purified with differential centrifugation by using sucrose albumin cushion, and subsequently stored in small aliquots at -70° C. The protein concentration of receptor membranes is determined by the biuret method.
To duplicate incubation, tubes are added 200 μl suspended membranes (200 μg protein), 25 μl of compound in solution or buffer and 25 μl (H3) dihydroalprenolol (200,000 CPM). Tubes were incubated at room temperature (23° C.) for an hour and then filtered rapidly under vacuum through Whatman GF/B filters. The filters are rinsed three times with 5 mL of cold buffer (145 mM NaCl, 1 mM ethylenediaminetetraacetic acid, and 10 mM tris, pH 7.4) and subsequently counted by liquid scintillation counter in 10 mL of aquasol. Specific binding of H3 DHA is defined as the excess over blank containing 100 μM nonradioactive DHA. Six serial dilutions of each compound are tested.
Beta adrenergic activity is inversely related to K-50 (the concentrations of the compound required to displace 50% radioactive ligand from binding sites of beta adrenergic receptors, i.e., 50% binding) value.

[2] = in words; cited from earlier work

CC(C)NCC(O)c1cc(F)cc(C#N)c1 (stereo not shown) [drawing 22]
IC50 [1]: 12.3 µM

CC(C)N(CC(O)c1cc(F)cc(C#N)c1)C(C)C (stereo not shown) [drawing 20]
IC50 [1]: 2.95 µM

CC(C)(C)NCC(O)c1cc(Cl)c(N)c(Cl)c1 (stereo not shown) [Clenbuterol]
bronchodilator activity [2]: very effective bronchodilator | heart stimulant activity [2]: potent heart

CC(C)(C)NCC(O)c1cc(F)cc(C#N)c1 (stereo not shown) [drawing 23]
IC50 [1]: 16.6 µM

CCCC(C)NCC(O)c1cc(F)cc(C#N)c1 (stereo not shown) [drawing 19]
IC50 [1]: 2.2 µM

CCNCC(O)c1cc(F)cc(C#N)c1 (stereo not shown) [drawing 21]
IC50 [1]: 3.04 µM
